According to ChEMBL document CHEMBL1131059, “Synthesis and biological activity of a new series of N6-arylcarbamoyl, 2-(Ar)alkynyl-N6-arylcarbamoyl, and N6-carboxamido derivatives of adenosine-5'-N-ethyluronamide as A1 and A3 adenosine receptor agonists” (J Med Chem, 1998):
pKi: −log10 of the molar value.

What was measured:
[1] = biological target: Adenosine receptors; A1 & A3 (Rattus norvegicus) (UniProt P25099+P28647); experiment: Selectivity for binding affinity towards A1 adenosine receptor in rat brain membrane and rat A3 receptor expressed in CHO cells.; format: cell-based
Adenosine receptor A3 = biological target: T1, Adenosine receptor A3 (Rattus norvegicus, UniProt P28647); experiment: biochemical
T1 sequence (P28647 whole entry): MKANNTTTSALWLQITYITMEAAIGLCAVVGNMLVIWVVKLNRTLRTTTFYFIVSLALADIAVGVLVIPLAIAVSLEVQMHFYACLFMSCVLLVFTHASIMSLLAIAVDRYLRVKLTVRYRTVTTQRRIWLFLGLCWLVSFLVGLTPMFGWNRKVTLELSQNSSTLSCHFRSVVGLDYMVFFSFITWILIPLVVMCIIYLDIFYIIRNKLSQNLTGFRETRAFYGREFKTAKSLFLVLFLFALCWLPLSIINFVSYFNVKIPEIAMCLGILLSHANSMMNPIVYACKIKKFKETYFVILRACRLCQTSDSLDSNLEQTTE
Description: Binding affinity against rat adenosine A3 receptor expressed in CHO cells using [125I]-.

Adenosine receptor A1 = biological target: T2, Adenosine receptor A1 (Rattus norvegicus, UniProt P25099)
T2 sequence (P25099 whole entry): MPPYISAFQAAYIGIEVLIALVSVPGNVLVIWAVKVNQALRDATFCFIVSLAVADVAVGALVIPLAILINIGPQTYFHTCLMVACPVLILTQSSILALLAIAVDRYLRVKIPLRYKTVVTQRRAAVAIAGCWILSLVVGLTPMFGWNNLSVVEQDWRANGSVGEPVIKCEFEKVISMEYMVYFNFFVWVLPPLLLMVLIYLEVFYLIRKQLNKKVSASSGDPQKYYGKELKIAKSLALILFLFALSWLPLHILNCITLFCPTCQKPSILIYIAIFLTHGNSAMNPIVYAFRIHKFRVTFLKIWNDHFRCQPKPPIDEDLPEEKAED
Description: Binding affinity against adenosine A1 receptor in rat brain membranes using [3H]R-PIA.

Adenosine receptor A2a = Adenosine receptor A2a (Rattus norvegicus, UniProt P30543)
Description: Binding affinity against adenosine A2A receptor in rat striatal membranes using [3H]-CGS- 21680.

[2] = biological target: Adenosine receptor A2a (Rattus norvegicus) (UniProt P30543); experiment: Binding affinity against Adenosine A2A receptor of rat striatal membranes using [3H]- CGS 21680 at 10E-4; details: concentration not given here
Sequence of Adenosine receptor A2a (Rattus norvegicus) (P30543 whole entry): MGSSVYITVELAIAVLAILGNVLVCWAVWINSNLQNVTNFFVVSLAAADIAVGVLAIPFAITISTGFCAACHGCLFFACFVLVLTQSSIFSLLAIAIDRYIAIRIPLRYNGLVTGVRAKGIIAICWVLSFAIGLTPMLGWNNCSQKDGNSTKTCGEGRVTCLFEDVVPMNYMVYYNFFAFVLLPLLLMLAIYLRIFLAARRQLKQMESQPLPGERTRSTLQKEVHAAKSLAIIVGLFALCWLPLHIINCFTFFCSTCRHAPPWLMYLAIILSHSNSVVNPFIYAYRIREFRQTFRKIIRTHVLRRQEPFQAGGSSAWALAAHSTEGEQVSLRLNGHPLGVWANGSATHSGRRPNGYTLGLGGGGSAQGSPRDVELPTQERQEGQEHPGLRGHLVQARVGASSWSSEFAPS

Sequence of Adenosine receptor A2a (P30543 whole entry): as above

| Structure (SMILES) | Ratio [1] | pKi (Adenosine receptor A3) | pKi (Adenosine receptor A1) | pKi (Adenosine receptor A2a) | inhibition [2] |
| --- | --- | --- | --- | --- | --- |
| CCNC(=O)[C@H]1O[C@@H](n2cnc3c(NC(=O)NCc4ccccc4)ncnc32)[C@H](O)[C@@H]1O | 4.5 |  |  |  |  |
| CCNC(=O)[C@H]1O[C@@H](n2cnc3c(NC(=O)Nc4ccc(S(N)(=O)=O)cc4)ncnc32)[C@H](O)[C@@H]1O | 47 |  |  |  |  |
| CNC(=O)[C@H]1OC(n2cnc3c(NCc4cccc(I)c4Cl)ncnc32)[C@H](O)[C@@H]1O (stereo partly specified) | 2500 | 9.48 | 6.09 | 6.33 |  |
| CCNC(=O)[C@H]1O[C@@H](n2cnc3c(NC(=O)c4ccccc4Cl)ncnc32)[C@H](O)[C@@H]1O | 1.6 | 6.12 | 5.93 | 5.71 |  |
| CCNC(=O)[C@H]1O[C@@H](n2cnc3c(NC(=O)Nc4ccc(OC)cc4)nc(C#CCCCc4ccccc4)nc32)[C@H](O)[C@@H]1O | 160 | 7.05 |  | 5.78 |  |
| CCNC(=O)[C@H]1O[C@@H](n2cnc3c(NC(=O)Nc4cccc(Cl)c4)nc(I)nc32)[C@H](O)[C@@H]1O | 0.33 | 6.50 | 6.99 | 4.97 |  |
| CCNC(=O)[C@H]1O[C@@H](n2cnc3c(N(C(=O)Nc4ccc(Cl)cn4)C(=O)Nc4ccc(Cl)cn4)ncnc32)[C@H](O)[C@@H]1O | 0.13 |  |  |  |  |
| CCCOc1ccc(NC(=O)Nc2ncnc3c2ncn3C2O[C@H](C(=O)NCC)[C@@H](O)[C@H]2O)cc1 (stereo partly specified) | 2.3 | 6.97 | 6.61 | 6.59 |  |
| CCNC(=O)[C@H]1O[C@@H](n2cnc3c(NC(=O)N[C@@H](C)c4ccccc4)ncnc32)[C@H](O)[C@@H]1O | 1.7 |  |  |  |  |
| CCNC(=O)[C@H]1O[C@@H](n2cnc3c(NC(=O)Cc4ccc(Cl)cc4Cl)ncnc32)[C@H](O)[C@@H]1O | 0.095 |  |  |  |  |
| CCNC(=O)[C@H]1O[C@@H](n2cnc3c(NC(=O)Nc4ccc(OC)cc4)nc(C#CC(O)c4ccccc4)nc32)[C@H](O)[C@@H]1O (stereo partly specified) | 0.23 | 6.49 | 7.12 |  | 12% |
| CCNC(=O)[C@H]1O[C@@H](n2cnc3c(NC(=O)Nc4ccc(OC)cc4)nc(C#Cc4ccccc4)nc32)[C@H](O)[C@@H]1O | 31 | 6.81 | 5.32 |  | 29% |
| CCNC(=O)[C@H]1O[C@@H](n2cnc3c(NC(=O)Nc4ccc(OC)cc4)nc(Cl)nc32)[C@H](O)[C@@H]1O | 1.2 | 7.77 | 7.66 | 7.23 |  |
| CCNC(=O)[C@H]1O[C@@H](n2cnc3c(NC(=O)c4ccccc4)ncnc32)[C@H](O)[C@@H]1O | 0.3 |  |  |  |  |
| CCNC(=O)[C@H]1O[C@@H](n2cnc3c(NC(=O)Nc4nncs4)ncnc32)[C@H](O)[C@@H]1O | 0.037 |  |  |  |  |
| CCNC(=O)[C@H]1O[C@@H](n2cnc3c(NC(=O)c4ccc(-c5ccccc5)cc4)ncnc32)[C@H](O)[C@@H]1O | 0.006 |  |  |  |  |

| Structure (SMILES) | Ratio [1] | pKi (Adenosine receptor A3) | pKi (Adenosine receptor A1) | pKi (Adenosine receptor A2a) | inhibition [2] |
| --- | --- | --- | --- | --- | --- |
| CCNC(=O)[C@H]1O[C@@H](n2cnc3c(NC(=O)Nc4cccc(Cl)c4)nc(C#CC(O)c4ccccc4)nc32)[C@H](O)[C@@H]1O (stereo partly specified) | 1.2 | 6.16 | 6.09 |  | 12% |
| CCCCC#Cc1nc(NC(=O)Nc2cccc(Cl)c2)c2ncn([C@@H]3O[C@H](C(=O)NCC)[C@@H](O)[C@H]3O)c2n1 | 3.5 | 6.24 | 5.69 | 5.15 |  |
| CCNC(=O)[C@H]1O[C@@H](n2cnc3c(NC(=O)Nc4ccc(NS(=O)(=O)c5ccccn5)cc4)ncnc32)[C@H](O)[C@@H]1O | 5.4 | 7.27 | 6.53 | 6.13 |  |
| CCNC(=O)[C@H]1O[C@@H](n2cnc3c(NC(=O)Nc4ccc(NS(=O)(=O)c5ncccn5)cc4)ncnc32)[C@H](O)[C@@H]1O | 1.7 | 6.39 | 6.14 | 7.77 |  |
| CCNC(=O)[C@H]1O[C@@H](n2cnc3c(NC(=O)NCCc4ccccc4)ncnc32)[C@H](O)[C@@H]1O | 0.86 | 6.83 | 6.89 | 5.58 |  |
| CCNC(=O)[C@H]1O[C@@H](n2cnc3c(NC(=O)Nc4ccc(C(C)=O)cc4)ncnc32)[C@H](O)[C@@H]1O | 3.5 |  |  |  |  |
| CCNC(=O)[C@H]1O[C@@H](n2cnc3c(NC(=O)Nc4ccc(OC)cc4)nc(I)nc32)[C@H](O)[C@@H]1O | 0.12 | 6.60 | 7.53 | 6.59 |  |
| CCNC(=O)[C@H]1O[C@@H](n2cnc3c(NC(=O)Nc4cccc(Cl)c4)nc(Cl)nc32)[C@H](O)[C@@H]1O | 1.2 | 7.11 | 7.05 | 6.25 |  |
| CCCCC#Cc1nc(NC(=O)Nc2ccc(OC)cc2)c2ncn([C@@H]3O[C@H](C(=O)NCC)[C@@H](O)[C@H]3O)c2n1 | 2 | 6.68 | 6.37 | 5.63 |  |
| CCNC(=O)[C@H]1O[C@@H](n2cnc3c(NC(=O)Nc4cccc(Cl)c4)nc(C#Cc4ccccc4)nc32)[C@H](O)[C@@H]1O | 2.1 | 6.21 | 5.88 | 4.31 |  |
| CCNC(=O)[C@H]1OC(n2cnc3c(NC(=O)Nc4ccc(NS(=O)(=O)c5cc(C)on5)cc4)ncnc32)[C@H](O)[C@@H]1O (stereo partly specified) | 5.8 | 6.81 | 6.05 | 6.01 |  |
| CCNC(=O)[C@H]1O[C@@H](n2cnc3c(NC(=O)N[C@H](C)c4ccccc4)ncnc32)[C@H](O)[C@@H]1O | 27 |  |  |  |  |
| CCNC(=O)[C@H]1O[C@@H](n2cnc3c(NC(=O)NCCc4ccc(OC)c(OC)c4)ncnc32)[C@H](O)[C@@H]1O | 4.3 | 6.39 | 5.75 | 5.80 |  |
| CCNC(=O)[C@H]1O[C@@H](n2cnc3c(NC(=O)c4ccc(OC)cc4)ncnc32)[C@H](O)[C@@H]1O | 0.1 |  |  |  |  |
| CCNC(=O)[C@H]1O[C@@H](n2cnc3c(NC(=O)NCc4ccco4)ncnc32)[C@H](O)[C@@H]1O | 0.58 | 6.15 | 6.38 | 5.73 |  |
| CCNC(=O)[C@H]1O[C@@H](n2cnc3c(NC(=O)Nc4cc(C)on4)ncnc32)[C@H](O)[C@@H]1O | 0.27 |  |  |  |  |
